Columns and labels:
[1] = Sensory descriptive analysis by experts (n=15); conditions: diluted to equivalent sweetness based on 10 brix of sugar
Method: The transfructosylated Stevioside (STV-Fru) and the transfructosylated Rebaudioside A (RA-Fru) prepared in Preparation Example 1 were diluted to the sweetness equivalent to Stevioside (STV) and Rebaudioside A (RA) (sweetness based on 10 brix of sugar), respectively, and then presented to experts (n=15) for descriptive analysis.

[2] = Sensory preference evaluation by 15 panels; conditions: diluted to sweetness equivalent to 10% (w/w) or 10 brix of sugar, 9-point scale converted to 5-point scale
Method: Prior to sensory evaluation, four samples of Example 1 (STV, STV-Fru, RA, RA-Fru) were diluted to the sweetness equivalent to 10% (w/w) or 10 brix of sugar, and the sensory evaluation was carried out on the four samples.
The evaluation was proceeded as follow: 15 panels were given the four samples and required to evaluate the sweetness preference and the overall preference of the four samples on a 9-point scale (1=very much dislike, 5=neither dislike nor like, 9=very much like).
Then, the statistical analysis was converted to a 5-point scale to verify the significant difference through paired T tests (reliability level of 95%).

[3] = listed as transfructosylated Rebaudioside A
[4] = listed as transfructosylated Stevioside

| SMILES | Bitterness Intensity [1] | Feeling of Weight [1] | Off-smell/Off flavor Intensity [1] | Overall Preference [1] | Sweetness Intensity [1] | Sweetness Persistence [1] | Sweetness Preference [1] | Overall Preference [2] | Sweetness Preference [2] | also measured |
| --- | --- | --- | --- | --- | --- | --- | --- | --- | --- | --- |
| C=C1C[C@@]23CC[C@H]4[C@@](C)(CCC[C@@]4(C)C(=O)O[C@@H]4O[C@H](CO)[C@@H](O)[C@H](O)[C@H]4O)[C@@H]2CC[C@]1(O[C@@H]1O[C@H](CO)[C@@H](O)[C@H](O[C@@H]2O[C@H](CO)[C@@H](O)[C@H](O)[C@H]2O)[C@H]1O[C@@H]1O[C@H](CO)[C@@H](O)[C@H](O)[C@H]1O)C3 [RA, Rebaudioside A, reference compound] | 3.4 | 2.9 | 3.3 | 2.6 | 3.2 | 2.9 | 2.5 | 2.72 | 2.51 | – |
| C=C1C[C@@]23CC[C@H]4[C@@](C)(CCC[C@@]4(C)C(=O)O[C@@H]4O[C@H](CO[C@]5(CO)O[C@H](CO)[C@@H](O)[C@@H]5O)[C@@H](O)[C@H](O)[C@H]4O)[C@@H]2CC[C@]1(O[C@@H]1O[C@H](CO)[C@@H](O)[C@H](O[C@@H]2O[C@H](CO)[C@@H](O)[C@H](O)[C@H]2O)[C@H]1O[C@@H]1O[C@H](CO)[C@@H](O)[C@H](O)[C@H]1O)C3 [RA-Fru, 13-[(2-β-D-glucopyranosyl-3-O-β-D-glucopyranosyl-β-D-glucopyranosyl)oxy]ent-kaur-16-en-19-oic acid 6-O-β-D-fructofuranose-β-D-glucopyranosyl ester] | 1.8 | 2.7 | 2.4 | 3.5 | 3.1 | 2.6 | 3.4 | 3.73 | 3.42 | Bitterness Intensity [1, 3]: significantly low; Off-smell/Off flavor Intensity [1, 3]: significantly low; Overall Preference [1, 3]: significantly high; Sweetness Preference [1, 3]: significantly high; Overall Preference [2, 3]: excellent; Sweetness Preference [2, 3]: excellent |
| C=C1C[C@@]23CC[C@H]4[C@@](C)(CCC[C@@]4(C)C(=O)O[C@@H]4O[C@H](CO)[C@@H](O)[C@H](O)[C@H]4O)[C@@H]2CC[C@]1(O[C@@H]1O[C@H](CO)[C@@H](O)[C@H](O)[C@H]1O[C@@H]1O[C@H](CO)[C@@H](O)[C@H](O)[C@H]1O)C3 [STV, Stevioside, reference compound] | 3.9 | 2.8 | 3.5 | 2.1 | 2.8 | 2.9 | 2.3 | 2.02 | 2.13 | – |
| C=C1C[C@@]23CC[C@H]4[C@@](C)(CCC[C@@]4(C)C(=O)O[C@@H]4O[C@H](CO[C@]5(CO)O[C@H](CO)[C@@H](O)[C@@H]5O)[C@@H](O)[C@H](O)[C@H]4O)[C@@H]2CC[C@]1(O[C@@H]1O[C@H](CO)[C@@H](O)[C@H](O)[C@H]1O[C@@H]1O[C@H](CO)[C@@H](O)[C@H](O)[C@H]1O)C3 [STV-Fru] | 2.3 | 3.2 | 2.3 | 3.5 | 2.6 | 2.7 | 3.3 | 3.02 | 3.14 | Bitterness Intensity [1, 4]: significantly low; Off-smell/Off flavor Intensity [1, 4]: significantly low; Overall Preference [1, 4]: significantly high; Sweetness Preference [1, 4]: significantly high; Overall Preference [2, 4]: excellent; Sweetness Preference [2, 4]: excellent |
